We go through one molecule from US8828930B2, “Hepatitis C virus NS3 protease inhibitors” (Merck Sharp & Dohme Corp., priority 2009, dated 2014).

Structures are written as SMILES. Where two headings read alike, the source gives them in different places.

In one series the target is NS3/4A protease gt 1b (Hepatitis C virus genotype 1b, UniProt P26663). Nature of the series: HCV NS3 protease time-resolved fluorescence (TRF) assay, NS3/4A inhibitory activity (Ki), gt 1b. The class given is biochemical. The following applies: NS3/4A enzyme. As to the method:
(§1) The HCV NS3 protease inhibitory activity of the present compounds may be tested using assays known in the art. One such assay is HCV NS3 protease time-resolved fluorescence (TRF) assay as described below and in WO 2006/102087. Other examples of such assays are described in, for example, WO 2005/046712. HCV NS3 protease inhibitors, such as those described herein have a Ki less than 50 μM, such as less than 10 μM, and less than 100 nM. Ki is determined by an NS3 protease assay. The assay is performed in a final volume of 100 μl in assay buffer containing 50 mM HEPES, pH 7.5, 150 mM NaCl, 15% glycerol, 0.15% TRITON X-100, 10 mM DTT, and 0.1% PEG 8000. NS3 protease is preincubated with various concentrations of inhibitors in DMSO for 30 minutes. The reaction is initiated by adding the TRF peptide substrate (final concentration 100 nM). NS3 mediated hydrolysis of the substrate is quenched after 1 hour at room temperature with 100 μl of 500 mM MES, pH 5.5. Product fluorescence is detected using either a VICTOR V2 or FUSION fluorophotometer (PERKIN ELMER LIFE AND ANALYTICAL SCIENCES) with excitation at 340 nm and emission at 615 nm with a 400 μs delay. Testing concentrations of different enzyme forms are selected to result in a signal to background ratio (SIB) of 10-30. IC50 values are derived using a standard four-parameter fit to the data. Ki values are derived from IC50 values using the following formula, IC50=Ki(1+[S]/KM), Eqn (1), where [S] is the concentration of substrate peptide in the reaction and KM is the Michaelis constant. See Paola Gallinari et al., Modulation of Hepatitis C Virus NS3 Protease and Helicase Activities through the Interaction with NS4A, 38 BIOCHEM. 5620 (1999); Paola Gallinari et al., Multiple Enzymatic Activities Associated with Recombinant NS3 Protein of Hepatitis C Virus, 72(8) J. VIROLOGY 6758 (1998); Mariana Taliani et al., A Continuous Assay of Hepatitis C Virus Protease Based on Resonance Energy Transfer Depsipeptide Substrates, 240 ANAL. BIOCHEM. 60 (1996).
(§2) This NS3 protease assay was performed in a final volume of 100 μl assay buffer containing 50 mM HEPES, pH 7.5, 150 mM NaCl, 15% glycerol, 0.15% TRITON X-100, 10 mM DTT, and 0.1% PEG 8000. NS3/4A protease was pre-incubated with various concentrations of inhibitors in DMSO for 30 minutes. The reaction was initiated by adding the TRF peptide substrate (final concentration 100 nM). NS3 mediated hydrolysis of the substrate was quenched after 1 hour at RT with 100 μl of 500 mM MES, pH 5.5. Product fluorescence was detected using either a V1CTOR V2 or FUSION fluorophotometer (PERKIN ELMER LIFE AND ANALYTICAL SCIENCES) with excitation at 340 nm and emission at 615 nm with a 400 us delay. Testing concentrations of different enzyme forms were selected to result in a signal to background ratio (SIB) of 10-30. IC50 values were derived using a standard four-parameter fit to the data. K, values are derived from IC50 values using the following formula, IC50=Ki(1+[S]/KM), Eqn (1), where [S] is the concentration of substrate peptide in the reaction and KM is the Michaelis constant. See Paola Gallinari et al., Modulation of Hepatitis C Virus NS3 Protease and Helicase Activities through the Interaction with NS4A, 38 BIOCHEM. 5620 (1999); Paola Gallinari et al., Multiple Enzymatic Activities Associated with Recombinant NS3 Protein of Hepatitis C Virus, 72(8) J. VIROLOGY 6758 (1998); Mariana Milani et al., A Continuous Assay of Hepatitis C Virus Protease Based on Resonance Energy Transfer Depsipeptide Substrates, 240 ANAL. BIOCHEM. 60 (1996); Shi-Shan Mao et al., A time-resolved, internally quenched fluorescence assay to characterize inhibition of hepatitis C virus nonstructural protein 3-4A protease at low enzyme concentrations, 373 ANALYTICAL BIOCHEMISTRY 1 (2008). Measuring Compound Inhibitory Potency (Replicon EC50 (nM))

The target of the next series is NS3/4A protease gt 3a (Hepatitis C virus genotype 3a, UniProt Q81258). Kind of series: HCV NS3 protease time-resolved fluorescence (TRF) assay, NS3/4A inhibitory activity (Ki), gt 3a. The class given is biochemical. The following applies: NS3/4A enzyme. As to the method: as §1, §2
A further series concerns HCV gt 1b replicon. Nature of the series: HCV replicon assay, compound inhibitory potency (Replicon EC50). The class given is cell-based. Particulars: Hepatitis C virus, GT1B. How it is done:
Measurement of inhibition by compounds was performed using the HCV replicon system. Several different replicons encoding different HCV genotypes or mutations were used. In addition, potency measurements were made using different formats of the replicon assay, including different ways of measurements and different plating formats. See Jan M. Vrolijk et al., A replicon-based bioassay for the measurement of interferons in patients with chronic hepatitis C, 110 J. VIROLOGICAL METHODS 201 (2003); Steven S. Carroll et al., Inhibition of Hepatitis C Virus RNA Replication by 2′-Modified Nucleoside Analogs, 278(14) J. BIOLOGICAL CHEMISTRY 11979 (2003). However, the underlying principles are common to all of these determinations, and are outlined below.
Stable neomycin phosphotransferase encoding replicon-harboring cell lines were used, so all cell lines were maintained under G418 selection prior to the assay. In some cases the cell lines encoded a luciferase:NEO FUSION and could be assayed either directly by determination of RNA copy number, or indirectly through measurement of the luciferase activity.
To initiate an assay, replicon cells were plated in the presence of a dilution series of test compound in the absence of G418. Typically, the assays were performed in a 96-well plate format for manual operation, or a 384-well plate in an automated assay. Replicon cells and compound were incubated for 24 to 48 hours, depending on the assay. At the end of the assay, cells are washed free of media and compound and then lysed. For direct quantitation, RNA levels were measured by 32P-probe hybridization and protection, or in a TAQMAN-based assay and normalized to cellular cyclophilin A RNA levels. In some cases, luciferase activity was measured using a conventional luciferase assay. In all cases, EC50 determinations were calculated as a percent of a DMSO control by fitting the data to a four-parameter fit function.

Series [1] has as its target NS3/4A protease gt 1b A156V (Hepatitis C virus genotype 1b, UniProt P26663, A1182V). Kind of series: HCV NS3 protease time-resolved fluorescence (TRF) assay, NS3/4A inhibitory activity (Ki), gt 1b A156V. The class given is biochemical. How it is done: as §1, §2
Series [2] can be described thus: Plasma and liver concentrations and pharmacokinetics (Rat PK). The class given is in vivo. The arrangement: Rat PK 5 mpk AUC: unit not given here. As to the method:
Test compounds were dissolved in a suitable dosing vehicle for i.v. administration (e.g., 20%:60%:20% DMSO:PEG400:H2O) or per oral administration (e.g., 10% POLYSORBATE80:90% H2O or 100% PEG400). Animals were administered (n=2 or 3) using a crossover study design for non-rodents. Plasma samples were collected at time points between 2 minutes and 24 hours, and compound levels were determined by RP-LC/MS/MS. Liver samples were collected post-mortem in rat. Liver samples were weighed, homogenized, and diluted using techniques known to those skilled in the art, and compound levels were determined by RP-LC/MS/MS.
Pharmacokinetic parameters were calculated based on non-compartmental analysis (e.g., using WATSON, WINNOLIN). Predose concentrations that were below the limit of quantitation (BLQ) were assigned a value of 0, Standard pharmacokinetic parameters CLp, Vdss, half-life (only for IV), % F, Cmax, Tmax, AUC0-last, AUC0-infinity were calculated. AUC values were calculated using linear trapezoidal method for ascending concentrations and the log trapezoidal method for descending concentrations.

As a reminder, the Ki is a dissociation constant, usually derived from enzyme kinetics or from competition with a known ligand. For orientation: EC50 means the midpoint of the concentration-response curve. `CC1(S(=O)(=O)NC(=O)[C@@]23C[C@H]2/C=C\CCCCC[C@@H]2NC(=O)O[C@]4(C)C[C@H]4CCCCCc4nc5ccccc5nc4O[C@@H]4C[C@@H](C(=O)N3)N(C4)C2=O)CC1` [Example 11, (3R,20R,22R,26S,32Z,34S,36R,39S)-22-Methyl-N-[(1-methylcyclopropyl)sulfonyl]-24,38,40-trioxo-4,23-dioxa-1,6,13,25,37-pentaazaheptacyclo[24.13.1.1^3,39.0^5,14.0^7,12.0^20,22.0^34,36]hentetraconta-5,7,9,11,13,32-hexaene-36-carboxamide]: the figures for the Ki (on NS3/4A protease gt 1b; at NS3/4A protease gt 3a; in series [1]) were 0.02 nM, 0.37 nM and 0.5 nM, respectively. For the same molecule, the EC50 with HCV gt 1b replicon (10% fetal bovine serum, read-out: gt 1b Replicon EC50 10% FBS) was determined as 1 nM; with HCV gt 1b replicon (50% normal human serum, read-out: gt 1b Replicon EC50 50% NHS) it was 5 nM. Also, in series [2] (5 mg/kg, 5 mpk, liver concentration at 4 h), the concentration at 4 h is 4 µM. Also, in series [2] (area under the plasma concentration/time curve), the “Rat PK 5 mpk AUC” value was 0.07.
